Laboratory results from ChEMBL document CHEMBL1201862, “PubChem BioAssay data set” (2004).
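Grown in 96-well plates, cells were treated for 48 hours with each compound at five concentrations. Insufficient inhibition: endpoint recorded as highest concentration tested. GI50 marks 50% less growth.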 Active and inactive are the calls of the source. Cut-off read from the data, not from the text of the source: active = GI50 up to about 1.1 µM and inactive = higher.

What was measured:
Assay in all cases: NCI-60 cell line screen, 48 h
HCT-15 = system: HCT-15
A549 = system: A549
SF-295 = system: SF-295
IGROV-1 = system: IGROV-1
BT-549 = system: BT-549
NCI-H23 = system: NCI-H23
LOX IMVI = system: LOX IMVI
HCC 2998 = system: HCC 2998
UO-31 = system: UO-31
OVCAR-5 = system: OVCAR-5
NCI-H226 = system: NCI-H226
SK-MEL-5 = system: SK-MEL-5
NCI-H460 = system: NCI-H460
SF-268 = system: SF-268
786-0 = system: 786-0
M14 = system: M14
U-251 = system: U-251
SF-539 = system: SF-539
MOLT-4 = system: MOLT-4
Malme-3M = system: Malme-3M
MCF7 = system: MCF7
RXF 393 = system: RXF 393
ACHN = system: ACHN
HL-60 = system: HL-60
PC-3 = system: PC-3
NCI/ADR-RES = system: NCI/ADR-RES
UACC-257 = system: UACC-257
UACC-62 = system: UACC-62
SR = system: SR
SNB-75 = system: SNB-75
CCRF-CEM = system: CCRF-CEM
SK-OV-3 = system: SK-OV-3
A498 = system: A498
MDA-MB-231 = system: MDA-MB-231
EKVX = system: EKVX
HOP-62 = system: HOP-62
OVCAR-4 = system: OVCAR-4
K562 = system: K562
HCT-116 = system: HCT-116
RPMI-8226 = system: RPMI-8226
SK-MEL-28 = system: SK-MEL-28
SK-MEL-2 = system: SK-MEL-2
SW-620 = system: SW-620
SN12C = system: SN12C
DU-145 = system: DU-145
OVCAR-3 = system: OVCAR-3
T47D = system: T47D
Hs-578T = system: Hs-578T
KM12 = system: KM12
NCI-H522 = system: NCI-H522
MDA-MB-435 = system: MDA-MB-435
OVCAR-8 = system: OVCAR-8
HT-29 = system: HT-29
SNB-19 = system: SNB-19
CAKI-1 = system: CAKI-1
TK-10 = system: TK-10
COLO 205 = system: COLO 205
MDA-N = system: MDA-N

Measured: GI50

CN(C)CCn1c(=O)c2ccc(NCCCN(C)CCCNc3ccc4c(=O)n(CCN(C)C)c(=O)n5c6ccccc6c(=O)c3c45)c3c(=O)c4ccccc4n(c1=O)c23
< 10 nM: HCT-15
active: A549 < 10 nM | SF-295 < 10 nM | IGROV-1 < 10 nM | BT-549 117 nM | NCI-H23 < 10 nM | LOX IMVI < 10 nM | HCC 2998 < 11.5 nM | UO-31 < 28.5 nM | OVCAR-5 145 nM | NCI-H226 < 10 nM | SK-MEL-5 < 10.6 nM | NCI-H460 < 10 nM | SF-268 258 nM | 786-0 < 10 nM | M14 167 nM | U-251 < 10 nM | SF-539 < 10 nM | MOLT-4 < 10 nM | Malme-3M 361 nM | MCF7 < 10 nM | RXF 393 < 14.9 nM | ACHN < 10 nM | HL-60 < 10 nM | PC-3 < 10 nM | NCI/ADR-RES 33.9 nM | UACC-257 208 nM | UACC-62 151 nM | SR < 10 nM | SNB-75 < 11.7 nM | CCRF-CEM < 10 nM | SK-OV-3 101 nM | A498 57.1 nM | MDA-MB-231 < 40.5 nM | EKVX 51 nM | HOP-62 < 16.1 nM | OVCAR-4 < 10 nM | K562 < 10 nM | HCT-116 < 10 nM | RPMI-8226 < 10 nM | SK-MEL-28 165 nM | SK-MEL-2 107 nM | SW-620 < 10 nM | SN12C < 10 nM | DU-145 < 10 nM | OVCAR-3 77.8 nM | T47D 540 nM | Hs-578T 131 nM | KM12 < 10 nM | NCI-H522 < 10 nM | MDA-MB-435 < 15.1 nM | OVCAR-8 < 10 nM | HT-29 < 10 nM | SNB-19 < 10 nM | CAKI-1 17.2 nM | TK-10 59.3 nM | COLO 205 < 10 nM

CCC1(CC)C(=O)OC(=O)C1(CC)CC
> 100000 nM: HCT-15
inactive: A549 > 100000 nM | SF-295 > 100000 nM | IGROV-1 > 100000 nM | BT-549 > 100000 nM | NCI-H23 > 100000 nM | LOX IMVI > 100000 nM | HCC 2998 > 100000 nM | UO-31 > 100000 nM | SK-MEL-5 > 100000 nM | NCI-H460 > 100000 nM | SF-268 > 100000 nM | 786-0 > 100000 nM | M14 > 100000 nM | U-251 > 100000 nM | SF-539 > 100000 nM | MOLT-4 > 100000 nM | ACHN > 100000 nM | HL-60 > 100000 nM | MDA-N > 100000 nM | PC-3 > 100000 nM | NCI/ADR-RES > 100000 nM | UACC-62 > 100000 nM | SR > 100000 nM | SNB-75 > 100000 nM | CCRF-CEM > 100000 nM | SK-OV-3 > 100000 nM | A498 > 100000 nM | MDA-MB-231 > 100000 nM | EKVX > 100000 nM | HOP-62 > 100000 nM | OVCAR-4 > 100000 nM | K562 > 100000 nM | HCT-116 > 100000 nM | RPMI-8226 > 100000 nM | SK-MEL-28 > 100000 nM | SK-MEL-2 > 100000 nM | SW-620 > 100000 nM | DU-145 > 100000 nM | OVCAR-3 > 100000 nM | T47D > 100000 nM | Hs-578T 15200 nM | KM12 > 100000 nM | NCI-H522 > 100000 nM | MDA-MB-435 > 100000 nM | OVCAR-8 > 100000 nM | HT-29 > 100000 nM | SNB-19 > 100000 nM | CAKI-1 > 100000 nM | TK-10 > 100000 nM | COLO 205 > 100000 nM
